# Test results from patent US20250360161A1, “CHEMICALLY MODIFIED HEPARIN” (IHP Therapeutics Inc., priority 2022, published 2025).
# What was measured:
# [1] = system: BxPC3 human pancreatic cancer cells; experiment: Pancreatic cancer BxPC3 subcutaneous model, tumor volume; type: in vivo, nude mice; settings: day 70; gemcitabine 100 mg/kg i.p. q3 day; Compounds A, B 5 mg/kg s.c. bid, 10 mg/kg from day 56
# Experimental: A study was conducted to evaluate the anti-cancer activity of Compound A and Compound B in a mouse model of pancreatic cancer. Human pancreatic cancer cells, BxPC3, were implanted subcutaneously (1×10^6 cells in 100 μL Matrigel) in 6 week old female nude mice (5 mice per group). Treatment began on day 7 after implantation, with either gemcitabine (100 mg/kg i.p. q3 day), Compound A (5 mg/kg s.c. bid), or Compound B (5 mg/kg s.c. bid). Tumor volume was measured with calipers each week. On day 56 the dose of both Compound A and B were increased to 10 mg/kg s.c. bid. At day 70 animals were sacrificed and tumors resected, fixed, and stored for further testing.
# [2] = system: P-selectin; experiment: P-selectin-mediated HL-60 cell binding to immobilized P-selectin/Fc chimera; type: cell-based; settings: HL-60 cells, best-fit values
# Experimental: 96 well plates were coated with 10 μg/mL Protein A overnight, then blocked with 2% FBS for 1 hour. 2 μg/mL P-selectin/Fc chimera was bound to the Protein A for 3 hours at 4° C. HL-60 cells (2e5 cells/well, CMFDA labeled) were then layered onto the P-selectin and allowed to bind for 1 hour at room temperature. Wells were treated concurrently with test samples to determine inhibitory binding activity. After 1 hour, unbound cells were washed and bound cells lysed in a 1% Triton-X solution and read on a Fluorimeter at 480/520 nm.
Molecule,reduction of tumor volume [1],P-sel IC50 [2] [µg/mL]
"Nc1ccn([C@@H]2O[C@H](CO)[C@@H](O)C2(F)F)c(=O)n1 [Gemcitabine, gemcitabine]",approximately 58%,
enoxaparin,,64.72
